Usually IC50 stands for the point on the concentration scale where inhibition reaches its midpoint.

Residues, ends and D or L forms follow the SMILES beside them. *: point of attachment. X3 = OC[C@H]1O[C@H](OCCn2cc(C*)nn2)[C@@H](O)[C@@H](O)[C@@H]1O; X4 = OC[C@H]1O[C@@H](OCCn2cc(C*)nn2)[C@H](O)[C@@H](O)[C@@H]1O; X6 = O[C@@H]1[C@@H](O)[C@@H](OCCn2cc(C*)nn2)O[C@H](CF)[C@H]1O; X1 = OC[C@H]1O[C@@H](OCCn2cc(C*)nn2)[C@H](O)[C@@H](O)[C@H]1O; X2 = O[C@@H]1[C@@H](O)[C@H](OCCn2cc(C*)nn2)O[C@H](CF)[C@H]1O; X5 = O[C@@H]1[C@H](O)[C@@H](OCCn2cc(C*)nn2)O[C@H](CF)[C@H]1O

Results on 12 compounds are retold here after ChEMBL document CHEMBL3351499, “'Click' glycosylation of peptides through cysteine propargylation and CuAAC” (Bioorg Med Chem, 2014).

The nature of this assay: Antiplatelet activity in citrated human platelet rich plasma assessed as inhibition of ADP-induced platelet aggregation incubated for 10 mins at 37 degC by light transmission aggregometry. It counts as functional.
As for `N=C(N)NCCC[C@H](N)C(=O)NCC(=O)N[C@@H](CC(=O)O)C(=O)N[C@@H](CSCc1cn(CCO[C@@H]2O[C@H](CO)[C@H](O)[C@H](O)[C@H]2O)nn1)C(=O)O` (H-RGDC(X1)-OH), the IC50 turned out to be 23 µM.
As for `CC(C)[C@@H]1NC(=O)[C@H](Cc2ccccc2)NC(=O)[C@H](CC(=O)O)NC(=O)CNC(=O)[C@H](CCCNC(=N)N)NC1=O`, the figure is 72 µM.
As for `NC(N)=NCCC[C@H](N)C(=O)NCC(=O)N[C@@H](CC(=O)O)C(=O)N[C@@H](CS)C(=O)O` (H-RGDC-OH), the IC50 came out at 322 µM.
With `N=C(N)NCCC[C@H](N)C(=O)NCC(=O)N[C@@H](CC(=O)O)C(=O)N[C@@H](CSCc1cn(CCO[C@H]2O[C@H](CF)[C@@H](O)[C@H](O)[C@@H]2O)nn1)C(=O)O` (H-RGDC(X5)-OH), the IC50 came to 23.5 µM.
In the case of `N=C(N)NCCC[C@H](N)C(=O)NCC(=O)N[C@@H](CC(=O)O)C(=O)N[C@@H](CSCc1cn(C[C@H]2O[C@H](O[C@H]3O[C@H](Cn4cc(CSC[C@H](NC(=O)[C@H](CC(=O)O)NC(=O)CNC(=O)[C@@H](N)CCCNC(=N)N)C(=O)O)nn4)[C@@H](O)[C@H](O)[C@H]3O)[C@@H](O)[C@@H](O)[C@@H]2O)nn1)C(=O)O`, the IC50 amounted to 76.5 µM.
Take `N=C(N)NCCC[C@H](N)C(=O)NCC(=O)N[C@@H](CC(=O)O)C(=O)N[C@@H](CSCc1cn(CCO[C@H]2O[C@H](CF)[C@@H](O)[C@H](O)[C@H]2O)nn1)C(=O)O` (H-RGDC(X6)-OH): the IC50 was found to be 26 µM.
As for `N=C(N)NCCC[C@H](N)C(=O)NCC(=O)N[C@@H](CC(=O)O)C(=O)N[C@@H](CSCc1cn(CCO[C@@H]2O[C@H](CF)[C@@H](O)[C@H](O)[C@H]2O)nn1)C(=O)O` (H-RGDC(X2)-OH), the figure is 66 µM.
For the compound `N=C(N)NCCC[C@@H]1NC(=O)[C@H](CSCc2cn(CCO[C@@H]3O[C@H](CF)[C@@H](O)[C@H](O)[C@H]3O)nn2)NC(=O)[C@H](Cc2ccccc2)NC(=O)[C@H](CC(=O)O)NC(=O)CNC1=O`, the IC50 was 148 µM.
As for `N=C(N)NCCC[C@H](N)C(=O)NCC(=O)N[C@@H](CC(=O)O)C(=O)N[C@@H](CSCc1cn(CCO[C@H]2O[C@H](CO)[C@@H](O)[C@H](O)[C@@H]2O)nn1)C(=O)O` (H-RGDC(X3)-OH), the figure is 47.6 µM; as for `N=C(N)NCCC[C@H](N)C(=O)NCC(=O)N[C@@H](CC(=O)O)C(=O)N[C@@H](CSCc1cn(CCO[C@@H]2O[C@H](CO)[C@@H](O)[C@H](O)[C@H]2O)nn1)C(=O)O` (H-RGDC(X4)-OH), 44 µM; as for `N=C(N)NCCC[C@@H]1NC(=O)[C@H](CS)NC(=O)[C@H](Cc2ccccc2)NC(=O)[C@H](CC(=O)O)NC(=O)CNC1=O` (cyclo(RGDFC)), 65 µM.
As for `NC(N)=NCCC[C@H](N)C(=O)NCC(=O)N[C@@H](CC(=O)O)C(=O)O`, the figure is 319 µM.
